This note sets out measurements from patent US10765682B2 (LAM Therapeutics, Inc., priority 2014, dated 2020).

A word on the IC20: it is the concentration needed for an effect of 20%. The low end stands for an effect from little substance, the high end for a need for much substance.

The subject of this assay is Yulac614 melanoma cells. The assay is described as follows: Yulac614 cell viability (CellTiter-Glo), drug library screen and 10 point validation with/without vemurafenib. On the technique in general: In ATP-based viability assays light output follows the ATP content of the culture.

Protocol: Duplicate drug-spotted plates were prepared and to them were added Yulac614 cells which were pre-treated with either DMSO (0.01% final) or vemurafenib (6 μM final). The Yulac614 cells were grown in OptiMEM (Life Technologies) containing 5% FBS (Sigma Aldrich F2442-500ML, Lot 12D370) Penicillin/Streptomycin (100×) (CellGro Ref 30-002). 30 uL of cells were dispensed per well using a Multidrop Combi (Thermo Fisher Scientific) to give a final cell density of 2,000 cells per well.
Plates were incubated for 72 h at 37° C. under an atmosphere of 5% CO2 in a humidified incubator. Cell viability was determined with CellTiter-Glo® luminescence assay (Promega) as per the manufacturer's instructions. Viability was expressed as a percentage of control (DMSO) cells. The viability of the library drug alone was compared to the library drug+vemurafenib and significant combinations were identified.
72 hours after compound addition relative cell viability was determined by CellTiter-Glo® luminescence assay (Promega) as per the manufacturer's instructions, and values were expressed as a percentage relative to vehicle (DMSO) treated control cells (set to 100%).

Turning to `Cc1cccc(/C=N/Nc2cc(N3CCOCC3)nc(OCCc3ccccn3)n2)c1` [apilimod, (E)-4-(6-(2-(3-methylbenzylidene)hydrazinyl)-2-(2-(pyridin-2-yl)ethoxy)pyrimidin-4-yl)morpholine], the IC20 is 500 nM.
